What was measured:
Format in all cases: cell-based
Conditions in all cases: 72 hours, relative IC50
AGS cells = assay: Gastric cancer cell proliferation inhibitory activity (CellTiter Glo), AGS
Procedure: (§1) Experiments were performed using four types of gastric cancer cell lines (AGS, SNU-1, KATO-III, and MKN45) to measure the cell proliferation inhibitory ability of each Example compound. For AGS cells, 90 µL of cell suspension was dispensed into a 96-well plate using F-12K (Gibco) medium containing 10 % FBS, followed by incubation in a cell incubator at 37 °C and 5 % CO2. For SNU-1 and MKN45 cells, 90 µL of cell suspension was dispensed into a 96-well plate using RPMI1640 (Gibco) medium containing 10 % FBS, followed by incubation in a cell incubator at 37 °C and 5 % CO2. For KATO-III cells, 90 uL of cell suspension was dispensed into a 96-well plate using IMDM (Gibco) medium containing 10 % FBS, followed by incubation in a cell incubator at 37 °C and 5 % CO2. The next day, each Example compound dissolved and diluted in DMSO across 9 concentration ranges and a DMSO control group were added at 10 µL to each 96-well plate and treated for 72 hours. After completion of the compound treatment, 100 µL of CellTiter Glo (Promega) reagent was added to each well of the 96-well plate, followed by shaking for 10 minutes and standing at room temperature for 10 minutes. Luminescence signals were measured after inserting the 96-well plate into an Envision plate reader (PerkinElmer). Relative IC50 values were calculated by fitting a dose-response curve using XLfit (IDBS Ltd) software.
(§2) The gastric cancer cell proliferation inhibitory activities of the Example compounds measured by the method described above were evaluated according to the following criteria, and the results are presented in Table 16.

SNU-1 = assay: Gastric cancer cell proliferation inhibitory activity (CellTiter Glo), SNU-1
Procedure: as §1, §2

KATO-III cells = assay: Gastric cancer cell proliferation inhibitory activity (CellTiter Glo), KATO-III
Procedure: as §1, §2

MKN45 cells = assay: Gastric cancer cell proliferation inhibitory activity (CellTiter Glo), MKN45
Procedure: as §1, §2

Measured: IC50

N.N.[Cl][Pt][Cl] [Cisplatin, reference compound]
> 1000 nM: all assays above

From patent EP4813991A1 (iLeadBMS Co., Ltd., priority 2023, dated 2025)
